According to paper PMC11110727, “Exploiting thiol-functionalized benzosiloxaboroles for achieving diverse substitution patterns – synthesis, characterization and biological evaluation of promising antibacterial agents” (RSC Medicinal Chemistry, 2024):
Converted amounts (≈) assume the structure as drawn.

Legend:
[1] = system: C. guilliermondii IBA 155; assay: Antifungal activity: MIC/MFC, disc-diffusion; assay type: cell-based; conditions: Meyerozyma guilliermondii, IBA155; read-out: MIC
Procedure, shortened: (§1)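 Inhibitory and cidal concentrations (MIC; MBC/MFC) were measured following CLSI, with EUCAST also applied to MIC and disc-diffusion testing. Each strain was revived from −80 °C stocks by two passages at 30 °C for 24–48 h.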

[2] = system: C. parapsilosis ATCC 22019; assay: Antifungal activity: MIC/MFC, disc-diffusion; assay type: cell-based; conditions: Lodderomyces parapsilosis, ATCC22019; read-out: MIC
Procedure, shortened: as §1

[3] = system: C. tropicalis ATCC 750; assay: Antifungal activity: MIC/MFC, disc-diffusion; assay type: cell-based; conditions: Candida tropicalis, ATCC750; read-out: MIC
Procedure, shortened: as §1

[4] = system: S. marcescens ATCC 13880; assay: Antibacterial activity: MIC/MBC, MIC with PAβN, disc-diffusion; assay type: cell-based, Serratia marcescens; conditions: S. marcescens ATCC 13880; for MIC: Serratia marcescens, ATCC13880, read-out: MIC; for diameter of inhibition zone: (-) = zone not observed, paper discs 9 mm; for -fold reduction of MIC in the presence of PAβN: PAβN 20 μg mL^−1, MHB + 1 mM MgSO4
Protocol: (§2) Direct antimicrobial activity was determined against the following standard strains: (1) Gram-positive cocci: methicillin-sensitive Staphylococcus aureus ATCC 6538P (MSSA), methicillin-resistant S. aureus subsp. aureus ATCC 43300 (MRSA), S. epidermidis ATCC 12228, Enterococcus faecium ATCC 6057, E. faecalis ATCC 29212, Bacillus subtilis ATCC 6633; (2) Gram-negative bacteria from Enterobacteriales order: Klebsiella pneumoniae ATCC 13883, Escherichia coli ATCC 25922, Enterobacter cloacae DSM 6234, Proteus mirabilis ATCC 12453, Serratia marcescens ATCC 13880; (3) Gram-negative non-fermentative rods: Acinetobacter baumannii ATCC 19606, Pseudomonas aeruginosa ATCC 27853, Stenotrophomonas maltophilia ATCC 12714, S. maltophilia ATCC 13637, Burkholderia cepacia ATCC 25416, Bordetella bronchiseptica ATCC 4617; (4) yeasts: Candida albicans ATCC 90028, C. krusei ATCC 6258, C. parapsilosis ATCC 22019, C. tropicalis (Castellani) Berkhout ATCC 750, C. tropicalis IBA 171, C. guilliermondii IBA 155, and Saccharomyces cerevisiae ATCC 9763. Moreover, 5 clinical strains of methicillin-resistant S. aureus were also included: NMI 664 K, NMI 1576 K, NMI 1712 K, NMI 1991 K, and NMI 2541 K. All strains were stored at −80 °C. Prior to testing, each bacterial strain was subcultured twice on tryptic soy agar TSA (bioMerieux) medium and yeast strains on Sabouraud dextrose agar (bioMerieux) for 24–48 h at 30 °C to ensure viability. The antimicrobial activity was evaluated as previously described[26] by the disc-diffusion method and the MIC determination assays according to the EUCAST (ref. [71] and [72]) and CLSI (ref. [53] and [73]) recommendations. Assessment of bactericidal (MBC) and fungicidal (MFC) activities was performed according to the CLSI recommendations.[54,74] […] The new benzosiloxaboroles were dissolved in DMSO (Sigma).
(§3) Considering that the MDR efflux pumps often contribute to Gram-negative rod resistance, the MIC values of studied agents, with or without the pump inhibitor, PAβN (20 μg mL^−1) (Sigma), were determined.[75] The MIC was determined using Mueller–Hinton II broth medium (MHB) (Becton Dickinson) by the broth microdilution method, according to the CLSI guideliness.[53] To minimize the influence of PAβN on the destabilization of bacterial cell covers, the tests were conducted in the presence of 1 mM MgSO4 (Sigma).[76] At least a 4-fold reduction in the MIC value after the addition of PAβN was considered significant.[56,77]

[5] = system: S. epidermidis ATCC 12228; assay: Antibacterial activity: MIC/MBC determination and disc-diffusion; assay type: cell-based; conditions: Staphylococcus epidermidis, ATCC12228, S. epidermidis ATCC 12228; for MIC: read-out: MIC
Protocol: (§4) Direct antimicrobial activity was determined against the following standard strains: (1) Gram-positive cocci: methicillin-sensitive Staphylococcus aureus ATCC 6538P (MSSA), methicillin-resistant S. aureus subsp. aureus ATCC 43300 (MRSA), S. epidermidis ATCC 12228, Enterococcus faecium ATCC 6057, E. faecalis ATCC 29212, Bacillus subtilis ATCC 6633; (2) Gram-negative bacteria from Enterobacteriales order: Klebsiella pneumoniae ATCC 13883, Escherichia coli ATCC 25922, Enterobacter cloacae DSM 6234, Proteus mirabilis ATCC 12453, Serratia marcescens ATCC 13880; (3) Gram-negative non-fermentative rods: Acinetobacter baumannii ATCC 19606, Pseudomonas aeruginosa ATCC 27853, Stenotrophomonas maltophilia ATCC 12714, S. maltophilia ATCC 13637, Burkholderia cepacia ATCC 25416, Bordetella bronchiseptica ATCC 4617; (4) yeasts: Candida albicans ATCC 90028, C. krusei ATCC 6258, C. parapsilosis ATCC 22019, C. tropicalis (Castellani) Berkhout ATCC 750, C. tropicalis IBA 171, C. guilliermondii IBA 155, and Saccharomyces cerevisiae ATCC 9763. Moreover, 5 clinical strains of methicillin-resistant S. aureus were also included: NMI 664 K, NMI 1576 K, NMI 1712 K, NMI 1991 K, and NMI 2541 K. All strains were stored at −80 °C. Prior to testing, each bacterial strain was subcultured twice on tryptic soy agar TSA (bioMerieux) medium and yeast strains on Sabouraud dextrose agar (bioMerieux) for 24–48 h at 30 °C to ensure viability. The antimicrobial activity was evaluated as previously described[26] by the disc-diffusion method and the MIC determination assays according to the EUCAST (ref. [71] and [72]) and CLSI (ref. [53] and [73]) recommendations. Assessment of bactericidal (MBC) and fungicidal (MFC) activities was performed according to the CLSI recommendations.[54,74] The following reference agents were used: fluconazole (in the case of fungi), linezolid (for Gram-positive bacteria), and nitrofurantoin (for Gram-negative rods). The new benzosiloxaboroles were dissolved in DMSO (Sigma).

[6] = system: E. faecalis ATCC 29212; assay: as above; assay type: cell-based; conditions: Enterococcus faecalis, ATCC29212; E. faecalis ATCC 29212; read-out: MIC
Protocol: as §4

[7] = system: E. faecium ATCC 6057; assay: as above; assay type: cell-based; conditions: Enterococcus faecium, ATCC6057; E. faecium ATCC 6057; read-out: MIC
Protocol: as §4

[8] = system: S. aureus ATCC 43300 MRSA; assay: as above; assay type: cell-based; conditions: Staphylococcus aureus, S. aureus ATCC 43300 MRSA; for MIC: read-out: MIC; for MBC: read-out: MBC (first MBC where Eagle effect)
Protocol: as §4

[9] = system: K. pneumoniae ATCC 13883; assay: Antibacterial activity: MIC/MBC, MIC with PAβN, disc-diffusion; assay type: cell-based, Klebsiella pneumoniae; conditions: K. pneumoniae ATCC 13883; for MIC: Klebsiella pneumoniae, ATCC13883, read-out: MIC; for diameter of inhibition zone: (-) = zone not observed, paper discs 9 mm; for -fold reduction of MIC in the presence of PAβN: PAβN 20 μg mL^−1, MHB + 1 mM MgSO4
Protocol: as §2, §3

[10] = system: S. cerevisiae ATCC 9763; assay: Antifungal activity: MIC/MFC, disc-diffusion; assay type: cell-based, Saccharomyces cerevisiae; conditions: Saccharomyces cerevisiae, ATCC9763; read-out: MIC
Protocol: as §4

Row | SMILES | MIC [1] | MIC [2] | MIC [3] | MIC [4] | MIC [5] | MIC [6] | MIC [7] | MIC [8] | MIC [9] | MIC [10] | MBC [5] | MBC [8] | diameter of inhibition zone [4] | -fold reduction of MIC in the presence of PAβN [4] | diameter of inhibition zone [9] | -fold reduction of MIC in the presence of PAβN [9]
1 | C[Si]1(C)OB(O)c2cc(F)c(SCCC(N)=O)c(F)c21 [Compound 7, 3-((5,7-Difluoro-3-hydroxy-1,1-dimethyl-1,3-dihydrobenzo[c][1,2,5]oxasilaborol-6-yl)thio)propanamide] | > 400 µg/mL | > 400 µg/mL | > 400 µg/mL | > 400 µg/mL | 100 µg/mL (≈ 315 µM) | 400 µg/mL (≈ 1260 µM) | 200 µg/mL (≈ 631 µM) | 100 µg/mL (≈ 315 µM) | > 400 µg/mL | > 400 µg/mL |  |  |  |  |  | 
2 | C[Si]1(C)OB(O)c2cc(F)c(SCCC(=O)N3CCOCC3)c(F)c21 [Compound 8, 3-((5,7-Difluoro-3-hydroxy-1,1-dimethyl-1,3-dihydrobenzo[c][1,2,5]oxasilaborol-6-yl)thio)-1-morpholinopropan-1-one] | > 400 µg/mL | > 400 µg/mL | > 400 µg/mL | > 400 µg/mL | 100 µg/mL (≈ 258 µM) | 400 µg/mL (≈ 1030 µM) | 200 µg/mL (≈ 516 µM) | 50 µg/mL (≈ 129 µM) | > 400 µg/mL | > 400 µg/mL |  |  |  |  |  | 
3 | C[Si]1(C)OB(O)c2cc(F)c(SCCC(=O)Nc3ncccn3)c(F)c21 [Compound 9, 3-((5,7-Difluoro-3-hydroxy-1,1-dimethyl-1,3-dihydrobenzo[c][1,2,5]oxasilaborol-6-yl)thio)-N-(pyrimidin-2-yl)propanamide] | > 400 µg/mL | > 400 µg/mL | > 400 µg/mL | > 400 µg/mL | 50 µg/mL (≈ 126 µM) | 200 µg/mL (≈ 506 µM) | 200 µg/mL (≈ 506 µM) | 50 µg/mL (≈ 126 µM) | > 400 µg/mL | > 400 µg/mL | 400 µg/mL (≈ 1010 µM) | 400 µg/mL (≈ 1010 µM) |  |  |  | 
4 | C[Si]1(C)OB(O)c2cc(F)c(SCCC(=O)Nc3cnccn3)c(F)c21 [Compound 10, 3-((5,7-Difluoro-3-hydroxy-1,1-dimethyl-1,3-dihydrobenzo[c][1,2,5]oxasilaborol-6-yl)thio)-N-(pyrazin-2-yl)propanamide] | > 400 µg/mL | > 400 µg/mL | > 400 µg/mL | > 400 µg/mL | 50 µg/mL (≈ 126 µM) | 200 µg/mL (≈ 506 µM) | 100 µg/mL (≈ 253 µM) | 50 µg/mL (≈ 126 µM) | > 400 µg/mL | > 400 µg/mL | 400 µg/mL (≈ 1010 µM) | 400 µg/mL (≈ 1010 µM) |  |  |  | 
5 | Cc1cc(NC(=O)CCSc2c(F)cc3c(c2F)[Si](C)(C)OB3O)no1 [Compound 11, 3-((5,7-Difluoro-3-hydroxy-1,1-dimethyl-1,3-dihydrobenzo[c][1,2,5]oxasilaborol-6-yl)thio)-N-(5-methylisoxazol-3-yl)propanamide] | > 400 µg/mL | > 400 µg/mL | > 400 µg/mL | > 400 µg/mL | 25 µg/mL (≈ 62.8 µM) | 200 µg/mL (≈ 502 µM) | 200 µg/mL (≈ 502 µM) | 50 µg/mL (≈ 126 µM) | > 400 µg/mL | > 400 µg/mL | 400 µg/mL (≈ 1000 µM) | 400 µg/mL (≈ 1000 µM) |  |  |  | 
6 | C[Si]1(C)OB(O)c2cc(F)c(SC3CC(=O)NC3=O)c(F)c21 (centres unmarked) [Compound 12, 3-((5,7-Difluoro-3-hydroxy-1,1-dimethyl-1,3-dihydrobenzo[c][1,2,5]oxasilaborol-6-yl)thio)pyrrolidine-2,5-dione] | > 400 µg/mL | > 400 µg/mL | > 400 µg/mL | 200 µg/mL (≈ 583 µM) | 6.25 µg/mL (≈ 18.2 µM) | 25 µg/mL (≈ 72.8 µM) | 12.5 µg/mL (≈ 36.4 µM) | 12.5 µg/mL (≈ 36.4 µM) | 400 µg/mL (≈ 1170 µM) | > 400 µg/mL | 400 µg/mL (≈ 1170 µM) | 200 µg/mL (≈ 583 µM) | 28 mm | 2 -fold | 17 mm | 4 -fold
7 | C[Si]1(C)OB(O)c2ccc(SC3CC(=O)NC3=O)c(F)c21 (centres unmarked) [Compound 13, 3-((7-Fluoro-3-hydroxy-1,1-dimethyl-1,3-dihydrobenzo[c][1,2,5]oxasilaborol-6-yl)thio)pyrrolidine-2,5-dione] | > 400 µg/mL | > 400 µg/mL | > 400 µg/mL | 100 µg/mL (≈ 308 µM) | 25 µg/mL (≈ 76.9 µM) | 25 µg/mL (≈ 76.9 µM) | 12.5 µg/mL (≈ 38.4 µM) | 25 µg/mL (≈ 76.9 µM) | 200 µg/mL (≈ 615 µM) | > 400 µg/mL |  |  | 29 mm | 2 -fold | 19 mm | 4 -fold
